Assay results from US9856232B1, “Dihydropyrimidinone derivatives” (KING SAUD UNIVERSITY, priority 2017, dated 2018).
Marks after values point to notes of the source that are not given here.

Key:
[1] = test system: total protein in stomach tissue, induced by 80% ethanol; assay: Total protein in stomach tissue; format: in vivo, Albino Wistar rats; conditions: mean ± SE
[2] = test system: malondialdehyde in stomach tissue, induced by 80% ethanol; assay: Determination of malondialdehyde (MDA); format: in vivo, Albino Wistar rats; conditions: mean ± SE
Experimental: (§1) Albino Wistar rats of either sex, approximately the same age, weighing 150 to 200 g and fed on a diet of standard chow were used in this study. They were randomly divided into experimental groups of six rats each. Compounds (N-1 to N-18) 12.5, 25, and 50 mg/kg were given orally in the anti-ulcer studies and intraperitoneally for gastric secretion evaluation. The rats were sacrificed, and the stomachs removed and opened along the greater curvature, After washing with saline, the gastric lesions were quantified by a person unaware of the treatments. The animal study protocol was approved by the Research and Ethics Committee of the Experimental Animal Care Society, College of Pharmacy, King Saud University, Riyadh, Saudi Arabia.
Determination of malondialdehyde (MDA): The animals were sacrificed 1 hour after ethanol administration. The stomachs were removed and each was homogenized in 0.15 mol/L KCl (at 4° C.) in a Potter-Elvehjem type C homogenizer to give a 10% w/v homogenate. Aliquots of homogenate 1 mL in volume were incubated at 37° C. for 3 hours in a metabolic shaker. Then 1 mL of 10% aqueous TCA was added and mixed. The mixture was then centrifuged at 800 g for 10 minutes. One milliliter of the supernatant was removed and mixed with 1 mL of 0.67% w/v thiobarbituric acid in water and placed in a boiling water bath for 10 minutes. The mixture was cooled and diluted with 1 mL distilled water. The absorbance of the solution was then read at 535 nm. The content of malondialdehyde (nmol/g wet tissue) (index of the magnitude of lipid peroxidation) was then calculated, by reference to a standard curve of malondialdehyde solution. Table 7 provides the effect of compounds on the levels of MDA, NP_SH, and total protein in stomach tissue induced by 80% ethanol (mean±SE).

[3] = test system: Gastric lesions induced by 80% ethanol; assay: Gastric lesions induced by ethanol (ulcer index by severity scores); format: in vivo, Albino Wistar rats; conditions: Rattus norvegicus, po, vs 80% EtOH group, read-out: Gastric lesions induced by 80% ethanol, % change; for inhibition in vivo at 12.5 mg/kg: compound 12.5 mg/kg; for inhibition in vivo at 25 mg/kg: compound 25 mg/kg; for inhibition in vivo at 50 mg/kg: compound 50 mg/kg
Experimental: as §1
Gastric lesions induced by ethanol: Albino rats of either sex weighing between (150-200 g) are divided into groups. The animals were fasted for 24 hours with free access to water. Animals were given test drugs or standard drug. One hour later 1 mL/200 gm of 80% ethanol is administered orally to each animal. The animals were anaesthetized 1 hour latter with anesthetic ether and stomach was incised along the greater curvature and ulceration was scored. The number of ulcers and the length of each ulcer were measured. Ulcer index was calculated using severity scores. The mucosal damage was examined by means of a magnifying glass. For each stomach the mucosal damage was assessed according to the following scoring system: 0.5 redness; 1.0 spot ulcers; 1.5 hemorrhagic streaks; 2.0 ulcers<3, but≦5; 3.0 ulcers>5. Table 1 provides the effect of compounds on gastric lesions induced by 80% ethanol (mean±SE).

[4] = test system: gastric secretion in pylorus-ligated Shay rats; assay: Pylorus-ligated rats: gastric secretion, acidity and lesion index; format: in vivo, Albino Wistar rats; set-up: Ulcer Index, pylorus-ligated Shay rats: scale not given here; conditions: i.p., 6 h after pylorus ligation, mean ± SE
Experimental: as §1
Pylorus-ligated rats: Rats were fasted for 36 hours with access to water ad libitum before pylorus ligation under ether anesthesia was carried out. Care was taken not to cause bleeding or to occlude blood vessels. Compounds (N-3, N-8, N-11, and N-15) were administered intraperitoneally immediately after pylorus ligation. The rats were sacrificed at 6 hours after pylorus ligation. The stomachs were removed, the contents were collected, volumes measured, centrifuged and analyzed for tritratable acidity against […], NaOH at pH 7.0. Table 5 provides the effect of compounds on gastric secretion, acidity, and gastric lesion index in pylorus-ligated Shay rats (mean±SE).

[5] = dose 12.5, 80% ethanol-treated rats
[6] = dose 25, 80% ethanol-treated rats
[7] = dose 50, 80% ethanol-treated rats

| melting point [°C] | Compound | Total Protein [1, 5] | Total Protein [1, 6] | Total Protein [1, 7] | MDA [2, 5] | MDA [2, 6] | MDA [2, 7] | inhibition in vivo at 12.5 mg/kg [3] [%] | inhibition in vivo at 25 mg/kg [3] [%] | inhibition in vivo at 50 mg/kg [3] [%] | Titratable Acidity ([4]; 12.5 mg/kg) [mEg/L] | Ulcer Index, pylorus-ligated Shay rats ([4]; 12.5 mg/kg) | Volume of Gastric Content ([4]; 12.5 mg/kg) [mL] | Titratable Acidity ([4]; 25 mg/kg) [mEg/L] | Ulcer Index, pylorus-ligated Shay rats ([4]; 25 mg/kg) | Volume of Gastric Content ([4]; 25 mg/kg) [mL] | Titratable Acidity ([4]; 50 mg/kg) [mEg/L] | Ulcer Index, pylorus-ligated Shay rats ([4]; 50 mg/kg) | Volume of Gastric Content ([4]; 50 mg/kg) [mL] |
| --- | --- | --- | --- | --- | --- | --- | --- | --- | --- | --- | --- | --- | --- | --- | --- | --- | --- | --- | --- |
| 185 to 187 | CN(C)c1ccc(C2NC(=O)NC=C2C(=O)c2ccc(N3CCCCC3)cc2)cc1 (stereo not shown) [Compound N-11, 4-(4-Dimethylaminophenyl)-5-[4-(piperidin-1-yl)benzoyl]-3,4-dihydropyrimidin-2(1H)-one] | 53.89 ± 1.48*^b g/L | 64.27 ± 2.08***^b g/L | 72.25 ± 1.43***^b g/L | 5.16 ± 0.22***^b nmol/g | 3.99 ± 0.17***^b nmol/g | 3.36 ± 0.08***^b nmol/g | 22.5 | 48.3 | 61.2 | 160.55 ± 3.48 | 2.83 ± 0.30 | 10.20 ± 0.29 | 141.11 ± 6.30 | 2.50 ± 0.42 | 7.35 ± 0.19 | 116.66 ± 4.63 | 2.33 ± 0.71 | 6.63 ± 0.21 |
|  | O=C1NC=C(C(=O)c2ccc(N3CCCCC3)cc2)C(c2ccc([N+](=O)[O-])cc2)N1 (stereo not shown) [Compound N-3, 4-(4-Nitrophenyl)-5-[4-(piperidin-1-yl)benzoyl]-3,4-dihyropyrimidin-2(1H)-one] | 58.68 ± 3.19*^b g/L | 74.65 ± 3.79*^b g/L | 95.80 ± 1.51***^b g/L | 4.47 ± 0.44***^b nmol/g | 3.07 ± 0.16***^b nmol/g | 1.95 ± 0.05***^b nmol/g | 33.3 | 53.3 | 60 | 153.88 ± 5.40 | 2.33 ± 0.33 | 9.03 ± 0.24 | 97.77 ± 2.93 | 1.83 ± 0.304 | 6.31 ± 0.25 | 84.84 ± 2.38 | 1.16 ± 0.30 | 4.63 ± 0.22 |
|  | COc1ccccc1C1NC(=O)NC=C1C(=O)c1ccc(N2CCCCC2)cc1 (stereo not shown) [Compound N-8, 4-(2-Methoxyphenyl)-5-[4-(piperidin-1-yl)benzoyl]-3,4-dihydropyrimidin-2(1H)-one] | 45.90 ± 1.14^b g/L | 55.88 ± 1.71*^b g/L | 66.26 ± 1.47 g/L | 6.63 ± 0.26^b nmol/g | 4.83 ± 0.24***^b nmol/g | 3.75 ± 0.07***^b nmol/g | 33.3 | 50 | 53.3 | 161.11 ± 4.36 | 3.16 ± 0.30 | 10.50 ± 0.34 | 133.33 ± 3.22 | 2.50 ± 0.22 | 9.36 ± 1.22 | 115.00 ± 5.75 | 2.00 ± 0.13 | 6.46 ± 0.16 |
|  | COc1ccc(C2NC(=O)NC=C2C(=O)c2ccc(N3CCCCC3)cc2)c(OC)c1OC (stereo not shown) [Compound N-15, 4-(2,3,4-Trimethoxyphenyl)-5-[4-(piperidin-1-yl)benzoyl]-3,4-dihydropyrimidin-2(1H)-one] | 71.45 ± 1.43*^b g/L | 81.43 ± 3.65***^b g/L | 96.60 ± 1.18***^b g/L | 3.51 ± 0.08***^b nmol/g | 2.72 ± 0.10***^b nmol/g | 1.90 ± 0.06***^b nmol/g | 35.4 | 54.8 | 67.7 | 116.11 ± 2.64 | 1.83 ± 0.304 | 6.68 ± 0.18 | 86.11 ± 3.98 | 1.50 ± 0.22 | 5.50 ± 0.24 | 73.33 ± 2.43 | 1.00 ± 0.36 | 4.76 ± 0.23 |
